Reference: article PMC2529273, “Pharmacological Properties of DOV 315,090, an ocinaplon metabolite” (BMC Pharmacology, 2008)
Several values for one entry are separate records, joined by “and”; a condition that tells them apart may be missing. Equal values may be shown once. Read-outs that look alike come from different tables or passages of the source.

Experiments:
α3β2γ2S GABAA-R [1] = target: T1, α3β2γ2S GABAA-R (Rattus norvegicus, UniProt P18508+P20236); test: cell-based; type: cell-based
Procedure: (§1) cRNAs encoding GABAA-R α1, α2, α3, α5, β2 and γ2S subunits were injected into oocytes from Xenopus laevis. […] GABA (Sigma) was prepared as a 1 M stock solution in ND96. Microelectrodes of 1–3 MΩ when filled with 3 M KCl were used to record from oocytes in a recording chamber continuously perfused with ND-96 buffer solution. During data acquisition, oocytes were clamped at a holding potential of -70 mV. Drugs were applied by perfusion at a rate of approximately 50 μl sec^-1 for 20 s followed by a 120 s wash. […] All experiments were performed at room temperature (22–24°C).
(§2) GABA concentration-response data was obtained for each subunit combination, and the GABA EC10 was determined by nonlinear regression using the logistic equation. This concentration of GABA was used for modulation studies. Peak current measurements were normalized and expressed as a fraction of the peak control current measurements. Control responses to an EC10 concentration of GABA were re-determined after every 2 – 4 applications of modulator + GABA. […] Potentiation data from each oocyte was fitted to the equation Potentiation = Emax × [Drug]/([Drug + EC50) by non-linear regression (Prism, Graph-Pad software). […] Given the lack of consistency of this possible high affinity effect, we have omitted it in fitting our concentration-effect curves. The choice of fitting to a monophasic or biphasic equation had only a small effect on the EC50 for the major component of modulation.
(§3) Rat GABAA-Rs consisting of α1β2γ2S, α2β2γ2S, α3β2γ2S and α5β2γ2S subunits were expressed in Xenopus oocytes. […] Higher concentrations (in parentheses) were excluded from the fit due to a decline in potentiation at higher concentrations.

α1β2γ3 GABAA-R = target: T2, α1β2γ3 GABAA-R (Rattus norvegicus, UniProt P28473+P62813); test: biochemical; type: binding
T2 construct: expressed in transfected cells; host or cells: HEK293 (CRL 1573), transient transfection
Procedure: (§4) HEK293 cells (CRL 1573, American type Culture Collection, Rockville, MD, USA) were cultured in Dulbecco's modified Eagle's medium (D-MEM, Invitrogen, Carlsbad, CA, USA) supplemented with 10% fetal bovine serum (Invitrogen, Carlsbad, CA, USA) and 1% MEM Non-Essential Amino Acids Solution (Invitrogen, Carlsbad, CA, USA). cDNAs encoding rat GABAA-R subunits were in the following vectors: α1 and α5 in pRc/CMV, α2, α3, γ2S and γ3 in pcDNA3 and β2 in pcDNA1. The cells were transiently transfected (5 μg of each cDNA per 100 mm dish) using FuGene™ (Roche Diagnostics Corporation) at a 3:1 FuGene:DNA ratio. […] Forty-eight hours after transfection, cells were washed with ice-cold PBS, harvested and homogenized. Cell homogenates were centrifuged (100,000 g, 25 min) and washed three times by homogenization in ice-cold PBS buffer followed by centrifugation at 100,000 g for 25 min. The final pellets were stored at -20°C until needed.
(§5) The samples were then diluted with 5 ml of ice-cold buffer and filtered under vacuum through glass-fiber filters (GF/B Whatman). Filters were washed 3 times with 5 ml of buffer and the radioactivity was quantitated by liquid scintillation counting in 5 ml of Ecolite scintillation fluid (ICN). Non-specific binding determined in the presence of 100 μM Ro 15–1788 (Sigma-Aldrich) was subtracted from total binding to calculate specific binding. Data were analyzed by non-linear regression (Prism, Graph-Pad software).

α1β2γ2S GABAA-R [2] = target: T3, α1β2γ2S GABAA-R (Rattus norvegicus, UniProt P18508+P62813); test: biochemical; type: binding
Procedure: as §4, §5

α5β2γ2S GABAA-R [3] = target: T4, α5β2γ2S GABAA-R (Rattus norvegicus, UniProt P18508+P19969); test: biochemical; type: binding
Procedure: as §4, §5

α2β2γ3 GABAA-R = target: T5, α2β2γ3 GABAA-R (Rattus norvegicus, UniProt P23576+P28473); test: biochemical; type: binding
T5 construct: expressed in transfected cells; host or cells: HEK293 (CRL 1573), transient transfection
Procedure: as §4, §5

α3β2γ2S GABAA-R [4] = target: T1, α3β2γ2S GABAA-R; test: biochemical; type: binding
Procedure: as §4, §5

α5β2γ3 GABAA-R = target: T6, α5β2γ3 GABAA-R (Rattus norvegicus, UniProt P19969+P28473); test: biochemical; type: binding
T6 construct: expressed in transfected cells; host or cells: HEK293 (CRL 1573), transient transfection
Procedure: as §4, §5

α2β2γ2S GABAA-R [5] = target: T7, α2β2γ2S GABAA-R (Rattus norvegicus, UniProt P18508+P23576); test: biochemical; type: binding
Procedure: as §4, §5

α1β2γ2S GABAA-R [6] = target: T3, α1β2γ2S GABAA-R; test: cell-based
Procedure: as §1, §2, §3

α5β2γ2S GABAA-R [7] = target: T4, α5β2γ2S GABAA-R; test: cell-based
Procedure: as §1, §2, §3

α2β2γ2S GABAA-R [8] = target: T7, α2β2γ2S GABAA-R; test: cell-based
Procedure: as §1, §2, §3

in vivo = type: in vivo, rat; conditions: rats, 1 h after administration of ocinaplon 5 mg/kg
Procedure: At 1 h, corresponding to the time at which the anticonflict effect of ocinaplon was evaluated, the plasma concentration of DOV 315,090 is ~38% of the concentration of parent compound.
Figure 2 Pharmacokinetics of ocinaplon and DOV 315,090. Blood levels of ocinaplon (●,○) and DOV 315090 (▲,△) were determined at various times after i.v. (●,▲) or oral (○,△) administration of 5 mg/kg ocinaplon to rats. […] This animal may have regurgitated a portion of the dose (of the suspension).

[9] = [3H]Ro15-1788 displacement, n = 3, read-out: IC50
[10] = mean ± SEM, n = 3, read-out: pIC50 (converted)

T1 sequence (P20236 29-493): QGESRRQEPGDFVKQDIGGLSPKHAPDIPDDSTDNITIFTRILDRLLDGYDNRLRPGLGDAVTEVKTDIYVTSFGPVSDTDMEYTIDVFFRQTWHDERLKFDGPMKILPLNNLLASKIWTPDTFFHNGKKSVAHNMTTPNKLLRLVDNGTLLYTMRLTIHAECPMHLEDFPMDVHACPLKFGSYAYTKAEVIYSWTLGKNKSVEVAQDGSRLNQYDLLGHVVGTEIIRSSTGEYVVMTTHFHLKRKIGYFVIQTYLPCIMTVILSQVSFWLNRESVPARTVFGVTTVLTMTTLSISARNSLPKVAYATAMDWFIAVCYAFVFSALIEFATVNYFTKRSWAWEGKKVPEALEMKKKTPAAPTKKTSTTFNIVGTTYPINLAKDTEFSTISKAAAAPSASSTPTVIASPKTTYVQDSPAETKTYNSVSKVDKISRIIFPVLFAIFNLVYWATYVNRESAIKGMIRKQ
T1 sequence (P63138 25-474 partner limits assumed): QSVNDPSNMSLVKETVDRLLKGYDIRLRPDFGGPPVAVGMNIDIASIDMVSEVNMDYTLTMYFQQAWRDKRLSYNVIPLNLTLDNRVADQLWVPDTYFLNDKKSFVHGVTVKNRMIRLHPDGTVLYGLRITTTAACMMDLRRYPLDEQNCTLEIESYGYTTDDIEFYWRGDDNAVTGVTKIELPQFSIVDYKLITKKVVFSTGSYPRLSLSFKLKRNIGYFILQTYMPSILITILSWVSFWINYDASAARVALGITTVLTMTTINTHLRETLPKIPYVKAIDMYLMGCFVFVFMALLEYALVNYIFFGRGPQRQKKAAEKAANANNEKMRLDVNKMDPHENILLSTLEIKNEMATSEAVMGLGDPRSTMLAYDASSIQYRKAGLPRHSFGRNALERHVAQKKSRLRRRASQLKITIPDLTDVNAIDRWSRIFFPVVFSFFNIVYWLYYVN
T1 sequence (P18508 39-466): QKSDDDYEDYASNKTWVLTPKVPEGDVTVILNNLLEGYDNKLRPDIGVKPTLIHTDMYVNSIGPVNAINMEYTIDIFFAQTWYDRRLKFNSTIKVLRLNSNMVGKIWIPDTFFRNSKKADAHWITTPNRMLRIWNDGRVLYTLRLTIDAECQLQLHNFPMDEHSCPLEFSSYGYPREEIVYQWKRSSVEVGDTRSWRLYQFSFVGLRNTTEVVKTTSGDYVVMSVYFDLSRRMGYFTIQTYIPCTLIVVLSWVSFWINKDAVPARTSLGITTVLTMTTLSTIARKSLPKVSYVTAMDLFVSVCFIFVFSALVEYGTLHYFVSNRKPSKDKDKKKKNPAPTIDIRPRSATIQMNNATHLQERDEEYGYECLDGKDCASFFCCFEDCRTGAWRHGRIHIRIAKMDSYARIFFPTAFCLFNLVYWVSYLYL
T3 sequence (P62813 28-455): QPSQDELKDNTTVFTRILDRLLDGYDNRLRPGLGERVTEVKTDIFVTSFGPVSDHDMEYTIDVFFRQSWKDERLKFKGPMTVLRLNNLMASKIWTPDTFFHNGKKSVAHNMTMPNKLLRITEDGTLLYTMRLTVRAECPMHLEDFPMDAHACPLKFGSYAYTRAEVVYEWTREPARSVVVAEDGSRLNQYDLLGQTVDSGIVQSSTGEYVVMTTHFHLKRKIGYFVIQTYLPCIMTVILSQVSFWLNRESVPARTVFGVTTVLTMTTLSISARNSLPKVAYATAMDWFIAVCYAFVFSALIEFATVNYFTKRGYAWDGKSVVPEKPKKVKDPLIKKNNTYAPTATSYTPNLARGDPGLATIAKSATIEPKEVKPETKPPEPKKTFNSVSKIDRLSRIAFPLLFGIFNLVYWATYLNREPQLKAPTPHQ
T3 sequence (P63138 25-474 partner limits assumed): as the sequence (P63138 25-474 partner limits assumed) above
T3 sequence (P18508 39-466): as the sequence (P18508 39-466) above
T2 sequence (P62813 28-455): as the sequence (P62813 28-455) above
T2 sequence (P63138 25-474 partner limits assumed): as the sequence (P63138 25-474 partner limits assumed) above
T2 sequence (P28473 18-467): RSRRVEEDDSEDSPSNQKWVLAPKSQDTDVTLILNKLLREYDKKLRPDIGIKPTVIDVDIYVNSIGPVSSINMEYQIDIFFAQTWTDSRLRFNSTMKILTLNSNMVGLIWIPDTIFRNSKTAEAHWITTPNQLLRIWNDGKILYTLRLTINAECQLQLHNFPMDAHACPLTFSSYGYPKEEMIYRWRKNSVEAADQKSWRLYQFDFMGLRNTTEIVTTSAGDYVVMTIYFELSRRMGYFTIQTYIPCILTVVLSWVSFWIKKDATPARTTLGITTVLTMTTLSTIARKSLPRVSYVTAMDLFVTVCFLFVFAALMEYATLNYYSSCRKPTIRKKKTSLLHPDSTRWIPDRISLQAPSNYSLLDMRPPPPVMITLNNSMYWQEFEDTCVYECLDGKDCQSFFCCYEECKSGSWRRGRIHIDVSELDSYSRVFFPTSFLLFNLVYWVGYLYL
T5 sequence (P23576 29-451): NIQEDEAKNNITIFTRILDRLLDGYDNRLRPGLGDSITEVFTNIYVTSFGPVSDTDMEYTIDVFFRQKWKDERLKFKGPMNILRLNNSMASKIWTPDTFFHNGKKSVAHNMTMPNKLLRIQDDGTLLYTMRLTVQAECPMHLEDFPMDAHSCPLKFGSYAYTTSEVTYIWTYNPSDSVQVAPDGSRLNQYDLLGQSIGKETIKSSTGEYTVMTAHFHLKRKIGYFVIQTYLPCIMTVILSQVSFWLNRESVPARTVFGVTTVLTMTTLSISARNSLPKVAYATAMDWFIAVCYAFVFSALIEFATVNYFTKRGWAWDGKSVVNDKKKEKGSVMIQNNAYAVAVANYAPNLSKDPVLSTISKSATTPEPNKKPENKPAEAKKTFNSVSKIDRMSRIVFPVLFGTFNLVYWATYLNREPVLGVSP
T5 sequence (P63138 25-474 partner limits assumed): as the sequence (P63138 25-474 partner limits assumed) above
T5 sequence (P28473 18-467): as the sequence (P28473 18-467) above
T7 sequence (P23576 29-451): as the sequence (P23576 29-451) above
T7 sequence (P63138 25-474 partner limits assumed): as the sequence (P63138 25-474 partner limits assumed) above
T7 sequence (P18508 39-466): as the sequence (P18508 39-466) above
T4 sequence (P19969 32-464 limits assumed): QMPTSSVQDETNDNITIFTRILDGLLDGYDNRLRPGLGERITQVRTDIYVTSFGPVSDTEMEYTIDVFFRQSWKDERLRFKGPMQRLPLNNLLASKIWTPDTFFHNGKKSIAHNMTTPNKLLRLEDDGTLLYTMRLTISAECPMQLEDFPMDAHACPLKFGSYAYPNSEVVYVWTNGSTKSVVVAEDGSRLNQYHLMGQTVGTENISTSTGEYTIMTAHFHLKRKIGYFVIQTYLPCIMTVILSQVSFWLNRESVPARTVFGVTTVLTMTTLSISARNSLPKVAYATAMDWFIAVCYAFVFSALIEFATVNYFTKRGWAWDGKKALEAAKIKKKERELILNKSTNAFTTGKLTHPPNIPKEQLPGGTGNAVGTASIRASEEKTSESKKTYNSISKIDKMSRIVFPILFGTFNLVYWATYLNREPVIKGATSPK
T4 sequence (P63138 25-474 partner limits assumed): as the sequence (P63138 25-474 partner limits assumed) above
T4 sequence (P18508 39-466): as the sequence (P18508 39-466) above
T6 sequence (P19969 32-464 limits assumed): as the sequence (P19969 32-464 limits assumed) above
T6 sequence (P63138 25-474 partner limits assumed): as the sequence (P63138 25-474 partner limits assumed) above
T6 sequence (P28473 18-467): as the sequence (P28473 18-467) above

`O=C(c1ccccn1)c1cnn2c(-c3cc[n+]([O-])cc3)ccnc12` [DOV 315,090, (7-(1-Oxidopyridin-1-ium-4-yl)pyrazolo [1,5-a]pyrimidin-3-yl)(pyridin-2-yl)methanone] gave an Emax (α3β2γ2S GABAA-R [1]) of 340 ± 35%, an EC50 (α3β2γ2S GABAA-R [1]; α3β2γ2S, GABA EC10, mean ± SEM, read-out: pEC50 (converted)) of 10 µM and an EC50 (α3β2γ2S GABAA-R [1]; α3β2γ2S, GABA EC10, number of oocytes in parentheses, read-out: EC50) of 10.2 µM. The “EC50/DZ EC50” value (α3β2γ2S GABAA-R [1]; α3β2γ2S, ratio to diazepam EC50) was 111, the “Emax/DZ Emax” value (α3β2γ2S GABAA-R [1]; α3β2γ2S, ratio to diazepam Emax) was 1.46 and the “EC50/OC EC50” value (α3β2γ2S GABAA-R [1]; α3β2γ2S, ratio to ocinaplon EC50) was 1.27. The “Emax/OC Emax” value (α3β2γ2S GABAA-R [1]; α3β2γ2S, ratio to ocinaplon Emax) was roughly 1.87, the IC50 (α1β2γ3 GABAA-R; [3H]Ro15-1788 displacement, α1β2γ3, n = 3, read-out: IC50) was 5.5 µM and the IC50 (α1β2γ3 GABAA-R; α1β2γ3, mean ± SEM, n = 3, read-out: pIC50 (converted)) was 5.37 µM. The “IC50/DZ IC50” value (α1β2γ3 GABAA-R; α1β2γ3, ratio to diazepam IC50) was 25, the “IC50/OC IC50” value (α1β2γ3 GABAA-R; α1β2γ3, ratio to ocinaplon IC50) was 2.40 and the IC50 (α1β2γ2S GABAA-R [2]; [9]) was 7 µM. The IC50 (α1β2γ2S GABAA-R [2]; [10]) was 6.46 µM, the “IC50/DZ IC50” value (α1β2γ2S GABAA-R [2]; ratio to diazepam IC50) was 220 and the “IC50/OC IC50” value (α1β2γ2S GABAA-R [2]; ratio to ocinaplon IC50) was 1.02. For the same compound, the IC50 (α5β2γ2S GABAA-R [3]; [9]) was 22 µM, the IC50 (α5β2γ2S GABAA-R [3]; [10]) was 21.4 µM and the “IC50/DZ IC50” value (α5β2γ2S GABAA-R [3]; ratio to diazepam IC50) was 790. For the same compound, the “IC50/OC IC50” value (α5β2γ2S GABAA-R [3]; ratio to ocinaplon IC50) was 2.24, the IC50 (α2β2γ3 GABAA-R; [3H]Ro15-1788 displacement, α2β2γ3, n = 3, read-out: IC50) was 20 µM and the IC50 (α2β2γ3 GABAA-R; α2β2γ3, mean ± SEM, n = 3, read-out: pIC50 (converted)) was 19.1 µM. For the same compound, the “IC50/DZ IC50” value (α2β2γ3 GABAA-R; α2β2γ3, ratio to diazepam IC50) was 120, the “IC50/OC IC50” value (α2β2γ3 GABAA-R; α2β2γ3, ratio to ocinaplon IC50) was 0.98 and the IC50 (α3β2γ2S GABAA-R [4]; [9]) was 9.3 µM. The IC50 (α3β2γ2S GABAA-R [4]; [10]) was 8.32 µM, the “IC50/DZ IC50” value (α3β2γ2S GABAA-R [4]; ratio to diazepam IC50) was 170 and the “IC50/OC IC50” value (α3β2γ2S GABAA-R [4]; ratio to ocinaplon IC50) was 1.09. The IC50 (α5β2γ3 GABAA-R; [3H]Ro15-1788 displacement, α5β2γ3, n = 3, read-out: IC50) was 27 µM, the IC50 (α5β2γ3 GABAA-R; α5β2γ3, mean ± SEM, n = 3, read-out: pIC50 (converted)) was 26.3 µM and the “IC50/DZ IC50” value (α5β2γ3 GABAA-R; α5β2γ3, ratio to diazepam IC50) was 323. For the same compound, the “IC50/OC IC50” value (α5β2γ3 GABAA-R; α5β2γ3, ratio to ocinaplon IC50) was 2.59, the IC50 (α2β2γ2S GABAA-R [5]; [9]) was 24 µM and the IC50 (α2β2γ2S GABAA-R [5]; [10]) was 23.4 µM. The “IC50/DZ IC50” value (α2β2γ2S GABAA-R [5]; ratio to diazepam IC50) was 760, the “IC50/OC IC50” value (α2β2γ2S GABAA-R [5]; ratio to ocinaplon IC50) was 0.89 and the Emax (α1β2γ2S GABAA-R [6]) was 192 ± 4%. The EC50 (α1β2γ2S GABAA-R [6]; α1β2γ2S, GABA EC10, number of oocytes in parentheses, read-out: EC50) was 4.87 µM, the “EC50/DZ EC50” value (α1β2γ2S GABAA-R [6]; α1β2γ2S, ratio to diazepam EC50) was 128 and the “Emax/DZ Emax” value (α1β2γ2S GABAA-R [6]; α1β2γ2S, ratio to diazepam Emax) was 1.33. For the same compound, the “EC50/OC EC50” value (α1β2γ2S GABAA-R [6]; α1β2γ2S, ratio to ocinaplon EC50) was 1.66, the “Emax/OC Emax” value (α1β2γ2S GABAA-R [6]; α1β2γ2S, ratio to ocinaplon Emax) was 1.45 and the Emax (α5β2γ2S GABAA-R [7]) was 68 ± 8%. For the same compound, the EC50 (α5β2γ2S GABAA-R [7]; α5β2γ2S, GABA EC10, mean ± SEM, read-out: pEC50 (converted)) was 9.33 µM, the EC50 (α5β2γ2S GABAA-R [7]; α5β2γ2S, GABA EC10, number of oocytes in parentheses, read-out: EC50) was 10.1 µM and the “EC50/DZ EC50” value (α5β2γ2S GABAA-R [7]; α5β2γ2S, ratio to diazepam EC50) was 405. The “Emax/DZ Emax” value (α5β2γ2S GABAA-R [7]; α5β2γ2S, ratio to diazepam Emax) was 0.30, the “EC50/OC EC50” value (α5β2γ2S GABAA-R [7]; α5β2γ2S, ratio to ocinaplon EC50) was 2.92 and the “Emax/OC Emax” value (α5β2γ2S GABAA-R [7]; α5β2γ2S, ratio to ocinaplon Emax) was 0.81. For the same compound, the Emax (α2β2γ2S GABAA-R [8]) was 139 ± 23%, the EC50 (α2β2γ2S GABAA-R [8]; α2β2γ2S, GABA EC10, mean ± SEM, read-out: pEC50 (converted)) was 12 µM and the EC50 (α2β2γ2S GABAA-R [8]; α2β2γ2S, GABA EC10, number of oocytes in parentheses, read-out: EC50) was 12.5 µM. The “EC50/DZ EC50” value (α2β2γ2S GABAA-R [8]; α2β2γ2S, ratio to diazepam EC50) was 482, the “Emax/DZ Emax” value (α2β2γ2S GABAA-R [8]; α2β2γ2S, ratio to diazepam Emax) was 0.88 and the “EC50/OC EC50” value (α2β2γ2S GABAA-R [8]; α2β2γ2S, ratio to ocinaplon EC50) was 1.37. For the same compound, the “Emax/OC Emax” value (α2β2γ2S GABAA-R [8]; α2β2γ2S, ratio to ocinaplon Emax) was 0.92 and the “plasma concentration as % of the concentration of parent compound (ocinaplon)” value (in vivo) was ~ 38% and 38%.
